In ChEMBL document CHEMBL1955772, “Cytotoxic terpenoids from Juglans sinensis leaves and twigs” (Bioorg Med Chem Lett, 2012):

What was measured:
B16-F10 = assay: Cytotoxicity against mouse B16F10 cells after 24 hrs by MTS assay; assay type: functional, cell-based; conditions: B16-F10, 24 h
[1] = Cytotoxicity against human U87MG cells after 24 hrs by MTS assay; assay type: functional, cell-based, U-87MG ATCC; conditions: U-87 MG
HEp-2 = assay: Cytotoxicity against human Hep2 cells after 24 hrs by MTS assay; assay type: functional, cell-based; conditions: HEp-2, 24 h
MCF7 = assay: Cytotoxicity against human MCF7 cells after 24 hrs by MTS assay; assay type: functional, cell-based; conditions: MCF7, 24 h

Compound | IC50 (B16-F10) | IC50 [1] | IC50 (HEp-2) | IC50 (MCF7)
C[C@H]1[C@H](C)CC[C@]2(C(=O)O[C@@H]3O[C@H](CO)[C@@H](O)[C@H](O)[C@H]3O)CC[C@]3(C)C(=CC[C@@H]4[C@@]5(C)C[C@@H](O)[C@@H](O)[C@@](C)(CO)[C@@H]5CC[C@]43C)[C@H]12 | > 10000 nM | > 10000 nM | > 10 µM | > 10 µM
CC(C)(O[C@@H]1O[C@H](CO)[C@@H](O)[C@H](O)[C@H]1O)[C@@H]1CC[C@@]2(C)CCC=C(CO)[C@@H]2C1 | > 10000 nM | > 10000 nM | > 10 µM | > 10 µM
CC(C)(O)[C@@H]1C[C@H]2[C@@](C)(C[C@@H]3C[C@@]32C)C[C@@H]1O | > 10000 nM | 1130 nM | 4.22 µM | 1.81 µM
CC(C)(O)[C@@H]1C[C@H]2[C@](C)(CC1=O)C[C@@H]1C[C@@]12C | 300 nM | 1160 nM | 5.25 µM | 4.11 µM
CO[C@@H]1O[C@@]2(CO)CC[C@@]13CC[C@]1(C)[C@H](C[C@@H](O)[C@@H]4[C@@]5(C)CC[C@H](O)[C@](C)(CO)[C@@H]5CC[C@]41C)[C@@H]3[C@]2(C)O (relative stereo) | 1530 nM | 3290 nM | 5.52 µM | 1.25 µM
CC1(C)C=C2[C@H]3CC[C@@H]4[C@@]5(C)[C@@H](O)C[C@H](O)C(C)(C)[C@@H]5CC[C@@]4(C)[C@]3(C)CC[C@@]2(C)CC1 (relative stereo) | 300 nM | 1310 nM | 5.4 µM | 3.86 µM
CC(C)(O)[C@@H]1C[C@H]2[C@@](C)(C[C@@H]3C[C@@]32C)C[C@H]1O (relative stereo) | > 10000 nM | > 10000 nM | > 10 µM | > 10 µM
